Measured values: paper PMC3723632, “A Multi-targeted Drug Candidate with Dual Anti-HIV and Anti-HSV Activity” (PLoS Pathogens, 2013)
Converted amounts (≈) assume the structure as drawn. Like-named read-outs stand apart in the source and are kept apart here.

Tests used:
PBMC = experiment: Bio-Plex chemokine assay in PBMC cultures; assay type: cell-based, human; conditions: for MIP-1β induced: 24 h; for production of CC-chemokines: even at 500 µg/ml
Procedure: Figure 9 Expression of CC-chemokines, CCR5 and chemokine mRNA expression in PBMC cultures after drug treatment. Panel A: Production of CC-chemokines by PBMC and the effects of adefovir, tenofovir, and PMEO-DAPym on the expression of the CCR5 receptor. Freshly isolated PBMCs from four healthy donors were incubated for 24 h with medium only (NC) or with adefovir, tenofovir, or PMEO-DAPym. We collected the supernatants and measured the concentrations of MIP-1α (▪), MIP-1β (▴), and RANTES (•) using a Bioplex system (Bio-Rad, Hercules, CA). Shown are means ± SEM. The cells were also collected, and the expression of the CCR5 receptor (□) was measured with flow cytometry using the PE-labeled CCR5 (clone 2D7) mAb; it is shown as percentage of control (± SEM) from four independent representative experiments. Panel B: Chemokine mRNA expression upon PMEO-DAPym exposure to PBMC. RT-PCR analysis of MIP-1α, MIP-1β, RANTES, and GAPDH (control) expression in PBMC treated with 100-µg/ml PMEO-DAPym for 4 h. Similar results were obtained with PBMC from three different donors. Results from one representative donor are shown.
Freshly isolated PBMC were cultured in the presence of adefovir, tenofovir, and PMEO-DAPym, and culture supernatants were collected after 24 h. We determined the cytokine production profile using the Bio-Plex 200 system (Bio-Rad, Hercules, CA) and a Bio-Plex Human chemokine assay according to the manufacturer's instructions and as described in detail earlier. The assay kit contains beads conjugated with mAbs specific for interferon-inducible protein-10 (IP-10), macrophage inflammatory protein-1α (MIP-α), and MIP-1β, and regulated on activation normal T-cell expressed and secreted (RANTES). For each chemokine, eight standards ranging from approximately 1.5 pg/ml to 32,000 pg/ml were constructed, and the minimum detectable dose was between 1.5 pg/ml and 8 pg/ml. Standard curves and the concentrations of chemokines within samples were generated with the Bio-Plex Manager 4.1 software.

HIV-1(IIIB) = experiment: Anti-HIV-1 activity in CD4+ T-lymphocyte CEM cell cultures; assay type: cell-based; conditions: Human immunodeficiency virus 1, CCRF-CEM, virus-induced cytopathicity
Text: (§1) Human CD4 ^+ T-lymphocyte CEM cell cultures were inoculated with HIV-1 and HIV-2 and exposed to adefovir, tenofovir, or PMEO-DAPym. […]

HSV-2 (G) = experiment: HSV-2 infection of primary monocyte/macrophage (M/M) cultures; assay type: cell-based; conditions: for inhibition at 0.0032 µg/mL / inhibition at 0.016 µg/mL / inhibition at 0.08 µg/mL / inhibition at 0.4 µg/mL / inhibition at 2 µg/mL / inhibition at 10 µg/mL / inhibition at 50 µg/mL: Human alphaherpesvirus 2, 144 h, day 6, read-out: Inhibition of viral replication (% to control); for EC50: Human alphaherpesvirus 2; for inhibition of HSV-2 replication: 2- to 10-µg/ml
Procedure: We obtained human PBMC from the blood of healthy seronegative donors using Ficoll–Hypaque density gradient centrifugation. The PBMC were resuspended in RPMI 1640 medium supplemented with 20% heat-inactivated serum and then seeded into 48-well plates (1.8×10^6 cells/well). M/M were separated by adherence onto plastic. After 5 days, non-adherent cells were carefully removed by repeated gentle washings with warm medium, and adherent M/M were cultured for an additional 3 days to mature and to form a monolayer. M/M were estimated to be 10^5 cells/well at the time of infection. […]. Similarly, macrophage cultures were treated with the same concentrations of adefovir and tenofovir. Macrophage cultures were then infected with HSV-2 (G) (100 TCID50) in the presence of the compounds. After 2 h of adsorption, the cultures were extensively washed to remove any residual virus particles. Fresh complete medium and compounds, at the established concentrations, were then added to the cultures. Appropriate positive (infected but not treated) and mock-infected negative (uninfected and untreated) M/M controls were run for each experiment as well. All assays were performed in triplicate. […] We determined the amount of infectious virus in the supernatants 5–6 days after infection using the cytopathic effect assay. Tenfold serially diluted supernatants were added to confluent monolayers of Vero cells in 96-well plates (100 µl/well, 6 parallel wells). […] The titers of virus produced were calculated according to the Reed and Muench method and expressed as 50% tissue culture infective dose per mL (TCID50/mL).

[1] = system: HSV-2 (G and clinical isolates); experiment: microbe, parasite or virus in culture; assay type: cell-based; conditions: Human alphaherpesvirus 2, HEL
Procedure: (§2) Figure 2 Antiherpetic activity of test compounds in cell culture. Confluent HEL cell cultures were exposed to 100 TCID50 of clinical virus isolates [wild-type HSV-1 (panel A), wild-type HSV-2 (panel B), TK^− HSV-1 (panel C) and TK^− HSV-2 (panel D)] in the presence of drugs at different concentrations and incubated for 3 days at 37°C. […] Data shown are the means of at least two independent experiments.

[2] = system: HSV-1 (KOS and clinical isolates); experiment: microbe, parasite or virus in culture; assay type: cell-based; conditions: Human alphaherpesvirus 1, HEL
Procedure: as §2

HIV-2(ROD) = experiment: Anti-HIV-2 activity in CD4+ T-lymphocyte CEM cell cultures; assay type: cell-based; conditions: Human immunodeficiency virus 2, CCRF-CEM
Text: as §1

[3] = HSV-2 (G), human monocyte/macrophages
[4] = HSV-2, average of seven TK-deficient clinical isolates
[5] = HSV-2, average of seven clinical isolates
[6] = HSV-1, average of six TK-deficient clinical isolates
[7] = HSV-1, average of six clinical isolates
[8] = HIV-2(ROD), CEM, virus-induced cytopathicity, read-out: EC50

Compound	EC50 (HIV-1(IIIB))	Virus production by HSV2-infected macrophages 6 days after infection (CPE reduction) (HSV-2 (G); 0.0032 µg/ml)	Cytopathicity (CPE) on macrophages 6 days after infection % CPE (HSV-2 (G); 0.016 µg/ml)	Virus production by HSV2-infected macrophages 6 days after infection (CPE reduction) (HSV-2 (G); 0.016 µg/ml)	Cytopathicity (CPE) on macrophages 6 days after infection % CPE (HSV-2 (G); 0.08 µg/ml)	Virus production by HSV2-infected macrophages 6 days after infection (CPE reduction) (HSV-2 (G); 0.08 µg/ml)	Virus production by HSV2-infected macrophages 6 days after infection (CPE reduction) (HSV-2 (G); 0.4 µg/ml)	Virus production by HSV2-infected macrophages 6 days after infection (CPE reduction) (HSV-2 (G); 10 µg/ml)	Virus production by HSV2-infected macrophages 6 days after infection (CPE reduction) (HSV-2 (G); 50 µg/ml)	inhibition at 0.0032 µg/mL (HSV-2 (G); 0.0032 µg/ml, M/M)	inhibition at 0.016 µg/mL (HSV-2 (G); 0.016 µg/ml, M/M)	inhibition at 0.08 µg/mL (HSV-2 (G); 0.08 µg/ml, M/M)	inhibition at 0.4 µg/mL (HSV-2 (G); 0.4 µg/ml, M/M)	inhibition at 2 µg/mL (HSV-2 (G); 2 µg/ml, M/M)	inhibition at 10 µg/mL (HSV-2 (G); 10 µg/ml, M/M)	inhibition at 50 µg/mL (HSV-2 (G); 50 µg/ml, M/M)	EC50 (HSV-2 (G); [3])	inhibition of HSV-2 replication (HSV-2 (G); M/M)	EC50 ([1]; HSV-2 (G))	EC50 [1, 4]	other results
Nc1cc(OCCOCP(=O)(O)O)nc(N)n1 [PMEO-DAPym, 6-phosphonylmethoxyethoxy-2,4-diaminopyrimidine]	0.9 ± 0.4 µg/mL (≈ 3.41 µM)	1.5×10^4 TCID50/ml	80%	1.35×10^4 TCID50/ml	55%	7.5×10^3 TCID50/ml	9.5×10^2 TCID50/ml	No virus	No virus	< 0%	3.5%	46%	93%	98 to 100%	100%	100%	0.09 ± 0.03 µg/mL (≈ 0.341 µM)	virtually completely inhibited	4.4 ± 2.4 µg/mL (≈ 16.7 µM)	2.4 ± 0.4 µg/mL (≈ 9.08 µM)	effect on IP-10 levels (PBMC): did not affect IP-10 levels; MIP-1β induced (PBMC; 20 µg/ml): 7.5 ng/mL; MIP-1β induced (PBMC; 100 µg/ml): 20 ng/mL; MIP-1β induced (PBMC; 500 µg/ml): 27 ng/mL; Virus production by HSV2-infected macrophages 6 days after infection (CPE reduction) (HSV-2 (G); 2 µg/ml): 2.26×10^2 TCID50/ml; Cytopathicity (CPE) on macrophages 6 days after infection % CPE (HSV-2 (G); 10 µg/ml): 0–5%; EC50 [1, 5]: 2 ± 0.4 µg/mL (≈ 7.57 µM); EC50 ([2]; HSV-1 (KOS)): 2.6 ± 1.2 µg/mL (≈ 9.84 µM); EC50 [2, 6]: 2.4 ± 0.6 µg/mL (≈ 9.08 µM); EC50 [2, 7]: 2 ± 0.5 µg/mL (≈ 7.57 µM); EC50 (HIV-2(ROD); [8]): 0.66 ± 0.19 µg/mL (≈ 2.5 µM)
Nc1ncnc2c1ncn2CCOCP(=O)(O)O [Adefovir, 9-(2-phosphonylmethoxyethyl)adenine]	0.96 ± 0.24 µg/mL (≈ 3.51 µM)	1.6×10^4 TCID50/ml	60%	7.2×10^3 TCID50/ml	40%	1.8×10^3 TCID50/ml	8×10^2 TCID50/ml	No virus	No virus	< 0%	49%	87%	94%	100%	100%	100%	0.016 ± 0.004 µg/mL (≈ 0.0586 µM)	virtually completely inhibited	6.3 ± 2.6 µg/mL (≈ 23.1 µM)	7.5 ± 1.5 µg/mL (≈ 27.5 µM)	production of CC-chemokines (PBMC): Neither adefovir nor tenofovir induced notable production of CC-chemokines; Virus production by HSV2-infected macrophages 6 days after infection (CPE reduction) (HSV-2 (G); 2 µg/ml): No virus; EC50 (HSV-2 (G); M/M, range over the compounds): 0.02 to 0.2 µg/mL (≈ 0.0732 to 0.732 µM); EC50 [1, 5]: 5.9 ± 0.9 µg/mL (≈ 21.6 µM); EC50 ([2]; HSV-1 (KOS)): 4.7 ± 1.8 µg/mL (≈ 17.2 µM); EC50 [2, 6]: 7 ± 1.4 µg/mL (≈ 25.6 µM); EC50 [2, 7]: 6.2 ± 1 µg/mL (≈ 22.7 µM); EC50 (HIV-2(ROD); [8]): 1.9 ± 1.1 µg/mL (≈ 6.95 µM)
C[C@H](Cn1cnc2c(N)ncnc21)OCP(=O)(O)O [Tenofovir, 9-(2-phosphonylmethoxypropyl)adenine]	0.36 ± 0.24 µg/mL (≈ 1.25 µM)	1.2×10^4 TCID50/ml	75%	1.3×10^4 TCID50/ml	60%	9×10^3 TCID50/ml	1.9×10^3 TCID50/ml	No virus	No virus	14%	7%	36%	86%	98%	100%	100%	0.2 ± 0.06 µg/mL (≈ 0.696 µM)	virtually completely inhibited	122 ± 51 µg/mL (≈ 425 µM)	121 ± 15 µg/mL (≈ 421 µM)	production of CC-chemokines (PBMC): Neither adefovir nor tenofovir induced notable production of CC-chemokines; Cytopathicity (CPE) on macrophages 6 days after infection % CPE (HSV-2 (G); 10 µg/ml): 10%; EC50 [1, 5]: 139 ± 11 µg/mL (≈ 484 µM); EC50 ([2]; HSV-1 (KOS)): 105 ± 20 µg/mL (≈ 366 µM); EC50 [2, 6]: 151 ± 19 µg/mL (≈ 526 µM); EC50 [2, 7]: 125 ± 12 µg/mL (≈ 435 µM); EC50 (HIV-2(ROD)): 0.43 ± 0.41 µg/mL (≈ 1.5 µM)
